# In the supplement of paper PMC10307832:
# Experiments:
# Experiment in all cases: relative viability (nuclei count vs DMSO), 5 days (fraction); higher = more cells survive
# [1] = compound: O=C(C[C@H]1NCCC[C@@H]1O)Cn1cnc2cc(Br)c(Cl)cc2c1=O (racemic) [Halofuginone] + CS(=O)(=O)N1CCN(Cc2cc3nc(-c4cccc5[nH]ncc45)nc(N4CCOCC4)c3s2)CC1 [Pictilisib] (partner 1 µM)
# Procedure, shortened: (§1)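 Lung cancer cell lines in 1536-well plates were dosed by pin tool the day after seeding, either with one drug alone or with a fixed anchor-drug dose plus five library-drug doses (not always all listed) in √10 steps. After 5 days, cells were fixed and their nuclei stained in one step (final 0.05% Triton X-100, 1% formaldehyde, 1 ug/ml Hoechst), then counted on 4× images. Relative viability is the nuclei count in treated wells divided by that in vehicle wells. Values are medians of duplicate plates.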
# [2] = compound: Nc1ncn([C@H]2C[C@H](O)[C@@H](CO)O2)c(=O)n1 [Decitabine] + Cc1cc(Nc2cc(N3CCN(C)CC3)nc(Sc3ccc(NC(=O)C4CC4)cc3)n2)n[nH]1 [Tozasertib] (partner 0.1 µM)
# Procedure, shortened: as §1
# [3] = compound: O=C(C[C@H]1NCCC[C@@H]1O)Cn1cnc2cc(Br)c(Cl)cc2c1=O (racemic) [Halofuginone] + O=C(CCCCCCC(=O)Nc1ccccc1)NO [Vorinostat] (partner 1 µM)
# Procedure, shortened: as §1
# [4] = compound: O=C(C[C@H]1NCCC[C@@H]1O)Cn1cnc2cc(Br)c(Cl)cc2c1=O (racemic) [Halofuginone] + Nc1ncn([C@H]2C[C@H](O)[C@@H](CO)O2)c(=O)n1 [Decitabine] (partner 2 µM)
# Procedure, shortened: as §1
Cell Line,relative viability ([1]; first compound 0.001 µM),relative viability ([1]; first compound 0.003162 µM),relative viability ([1]; first compound 0.01 µM),relative viability ([1]; first compound 0.03162 µM),relative viability ([1]; first compound 0.1 µM),relative viability ([2]; first compound 0.04 µM),relative viability ([2]; first compound 0.1265 µM),relative viability ([2]; first compound 0.4 µM),relative viability ([2]; first compound 1.265 µM),relative viability ([2]; first compound 4 µM),relative viability ([3]; first compound 0.001 µM),relative viability ([3]; first compound 0.003162 µM),relative viability ([3]; first compound 0.01 µM),relative viability ([3]; first compound 0.03162 µM),relative viability ([3]; first compound 0.1 µM),relative viability ([4]; first compound 0.001 µM),relative viability ([4]; first compound 0.003162 µM),relative viability ([4]; first compound 0.01 µM),relative viability ([4]; first compound 0.03162 µM),relative viability ([4]; first compound 0.1 µM)
HCC-366,0.231,0.14,0.216,0.144,0.184,0.0988,0.104,0.0711,0.0439,0.0387,0.446,0.347,0.319,0.233,0.0907,0.385,0.418,0.339,0.373,0.336
HCC-827,0.874,1.05,0.962,1.08,0.777,0.253,0.265,0.219,0.221,0.224,0.764,0.777,0.795,0.869,0.87,0.332,0.282,0.207,0.295,0.308
HOP-62,0.661,0.781,0.766,0.53,0.239,0.226,0.229,0.141,0.108,0.104,0.675,0.597,0.603,0.566,0.279,0.233,0.224,0.194,0.206,0.199
IA-LM,0.415,0.26,0.288,0.256,0.057,–,–,–,–,–,1.02,0.995,0.902,0.92,0.878,–,–,–,–,–
LC-2-ad,0.66,0.551,0.492,0.455,0.269,0.479,0.419,0.299,0.334,0.371,0.695,0.706,0.69,0.696,0.686,0.7,0.857,0.806,0.892,0.687
LCLC-97TM1,0.289,0.216,0.179,0.201,0.14,0.167,0.17,0.129,0.11,0.0997,0.757,0.602,0.726,0.622,0.419,0.263,0.222,0.203,0.19,0.227
LCLC-103H,0.627,0.605,0.601,0.668,0.685,0.485,0.463,0.308,0.369,0.253,0.865,0.807,0.803,0.723,0.719,0.773,0.78,0.735,0.711,0.728
LK-2,0.577,0.792,0.531,0.664,0.532,0.168,0.166,0.182,0.155,0.19,0.331,0.292,0.292,0.353,0.254,0.309,0.261,0.337,0.328,0.286
LOU-NH91,0.574,0.51,0.503,0.52,0.514,0.444,0.606,0.522,0.464,0.512,0.929,0.955,0.898,0.907,0.779,0.809,0.818,0.787,0.802,0.817
LU99A,0.405,0.361,0.294,0.308,0.242,0.32,0.255,0.291,0.252,0.219,0.482,0.578,0.51,0.479,0.453,0.783,1.01,0.846,0.769,0.879
LXF-289,0.748,0.859,0.795,0.813,0.495,0.151,0.162,0.119,0.0869,0.0957,0.709,0.829,0.728,0.763,0.686,0.395,0.393,0.383,0.418,0.381
NCI-H522,–,–,–,–,–,0.538,0.624,0.376,0.446,0.37,0.833,0.829,0.926,0.951,0.976,0.735,0.673,0.871,0.753,0.717
NCI-H1299,1.01,0.806,0.619,0.232,0.077,–,–,–,–,–,–,–,–,–,–,–,–,–,–,–
NCI-H1563,0.671,0.644,0.685,0.588,0.575,–,–,–,–,–,–,–,–,–,–,–,–,–,–,–
NCI-H1623,–,–,–,–,–,0.401,0.422,0.367,0.373,0.305,–,–,–,–,–,–,–,–,–,–
NCI-H1648,–,–,–,–,–,0.519,0.402,0.321,0.172,0.184,0.624,0.488,0.522,0.415,0.61,0.518,0.525,0.512,0.559,0.506
NCI-H1703,0.252,0.264,0.247,0.214,0.193,–,–,–,–,–,–,–,–,–,–,–,–,–,–,–
NCI-H1792,0.336,0.228,0.3,0.34,0.243,–,–,–,–,–,–,–,–,–,–,0.652,0.609,0.529,0.541,0.186
NCI-H2228,0.355,0.455,0.398,0.224,0.095,0.176,0.207,0.134,0.114,0.104,0.822,0.807,0.726,0.424,0.0673,–,–,–,–,–
NCI-H2342,–,–,–,–,–,0.495,0.502,0.552,0.385,0.362,0.649,0.743,0.725,0.715,0.737,0.664,0.724,0.722,0.671,0.685
SW 900,–,–,–,–,–,0.288,0.297,0.222,0.182,0.15,0.729,0.379,–,0.535,0.317,0.484,0.418,–,0.443,0.358
